Measured values taken from patent publication US7067508B2, “Diaminedithiol derivatives and radiorhenium or radiotechnetium complex thereof; a liver cancer-treating composition comprising the radiorhenium complex and lipiodol; and a kit for preparation of the liver cancer-treating composition” (Seoul National University Industry Foundation, priority 2001, dated 2006).

Experiment: Biodistribution of 188Re-labelled compounds in lipiodol solution in mice after tail vein injection
Assay type: in vivo
Conditions: mice (ICR)
Experimental: To the ^188Re-labelled reaction mixture prepared in the foregoing Examples 4 to 6, lipiodol (5 ml) was added, mixed well and the solution was centrifuged at 3000 rpm for 10 min. The supernatant was removed and 2 ml saline was added. After mixing well, the resulting solution was centrifuged again at 3000 rpm for 10 min and the supernatant was removed to recover a lower phase of lipiodol.
Mice (ICR) were administered with an injection of ^188Re-labelled compound in lipiodol solution which was prepared in the Example 7 via the tail vein. Radioactivity distributed in tissues and weight of each tissue were measured to calculate the percentage of radioactivity per gram of unit tissue relative to total radioactivity administered.
As radiation accumulation mechanism in the lung and the liver cancer are similar, it is convenient to detect the level of radiation accumulating in the lung of a mouse suffering from liver cancer. […] Therefore, it can be inferred that a radiorhenium complex of a diaminedithiol derivative having a long side chain is effective for treating liver cancer.

Q: Which “Biodistribution, radioactivity in Blood” value (10 min post-injection) does the source give for `CCCCCCCCCCCC[N+]12CC[N]3CC(C)(C)[S][188Re-]31(=[O])[S]C(C)(C)C2` (centres unmarked) [^188Re-DTDD] here?
A: 13.0 ± 0.6 percentage of radioactivity per gram

Q: And the “Biodistribution, radioactivity in Fat” value (10 min post-injection)?
A: 5.5 ± 0.4 percentage of radioactivity per gram

Q: And the “Biodistribution, radioactivity in Heart” value (10 min post-injection)?
A: 9.1 ± 2.3 percentage of radioactivity per gram

Q: What about the “Biodistribution, radioactivity in Kidney” value (10 min post-injection) of the same compound?
A: 9.9 ± 0.7 percentage of radioactivity per gram

Q: And the “Biodistribution, radioactivity in Liver” value (10 min post-injection)?
A: 14.9 ± 0.7 percentage of radioactivity per gram

Q: What about the “Biodistribution, radioactivity in Lung” value (10 min post-injection) of the same compound?
A: 137.4 ± 13.1 percentage of radioactivity per gram

Q: What about the “Biodistribution, radioactivity in Muscle” value (10 min post-injection) of the same compound?
A: 2.4 ± 0.1 percentage of radioactivity per gram

Q: And the “Biodistribution, radioactivity in Small intestine” value (10 min post-injection)?
A: 4.8 ± 0.3 percentage of radioactivity per gram

Q: What about the “Biodistribution, radioactivity in Spleen” value (10 min post-injection) of the same compound?
A: 5.6 ± 0.3 percentage of radioactivity per gram

Q: What about the “Biodistribution, radioactivity in Stomach” value (from here on “Biodistribution … in Stomach”) (10 min post-injection) of the same compound?
A: 18.3 ± 4.4 percentage of radioactivity per gram

Q: What about the “Biodistribution, radioactivity in Blood” value (30 min post-injection) of the same compound?
A: 9.5 ± 1.1 percentage of radioactivity per gram

Q: What about the “Biodistribution, radioactivity in Fat” value (30 min post-injection) of the same compound?
A: 4.4 ± 0.8 percentage of radioactivity per gram

Q: And the “Biodistribution, radioactivity in Heart” value (30 min post-injection)?
A: 5.0 ± 0.9 percentage of radioactivity per gram

Q: What about the “Biodistribution, radioactivity in Kidney” value (30 min post-injection) of the same compound?
A: 7.4 ± 0.5 percentage of radioactivity per gram

Q: What about the “Biodistribution, radioactivity in Liver” value (30 min post-injection) of the same compound?
A: 14.6 ± 2.2 percentage of radioactivity per gram

Q: What about the “Biodistribution, radioactivity in Lung” value (30 min post-injection) of the same compound?
A: 85.1 ± 7.1 percentage of radioactivity per gram

Q: What about the “Biodistribution, radioactivity in Muscle” value (30 min post-injection) of the same compound?
A: 2.0 ± 0.2 percentage of radioactivity per gram

Q: And the “Biodistribution, radioactivity in Small intestine” value (30 min post-injection)?
A: 8.3 ± 0.7 percentage of radioactivity per gram

Q: What about the “Biodistribution, radioactivity in Spleen” value (30 min post-injection) of the same compound?
A: 4.8 ± 0.4 percentage of radioactivity per gram

Q: And the “Biodistribution … in Stomach” value (30 min post-injection)?
A: 36.0 ± 5.9 percentage of radioactivity per gram

Q: And the “Biodistribution, radioactivity in Blood” value (1 hr post-injection)?
A: 7.0 ± 0.8 percentage of radioactivity per gram

Q: And the “Biodistribution, radioactivity in Fat” value (1 hr post-injection)?
A: 4.1 ± 0.6 percentage of radioactivity per gram

Q: What about the “Biodistribution, radioactivity in Heart” value (1 hr post-injection) of the same compound?
A: 5.5 ± 0.4 percentage of radioactivity per gram

Q: And the “Biodistribution, radioactivity in Kidney” value (1 hr post-injection)?
A: 6.2 ± 0.7 percentage of radioactivity per gram

Q: And the “Biodistribution, radioactivity in Liver” value (1 hr post-injection)?
A: 13.2 ± 2.8 percentage of radioactivity per gram

Q: And the “Biodistribution, radioactivity in Lung” value (1 hr post-injection)?
A: 82.2 ± 15.1 percentage of radioactivity per gram

Q: And the “Biodistribution, radioactivity in Muscle” value (1 hr post-injection)?
A: 1.5 ± 0.3 percentage of radioactivity per gram

Q: What about the “Biodistribution, radioactivity in Small intestine” value (1 hr post-injection) of the same compound?
A: 9.7 ± 1.2 percentage of radioactivity per gram

Q: What about the “Biodistribution, radioactivity in Spleen” value (1 hr post-injection) of the same compound?
A: 3.5 ± 0.5 percentage of radioactivity per gram

Q: And the “Biodistribution … in Stomach” value (1 hr post-injection)?
A: 49.2 ± 7.0 percentage of radioactivity per gram

Q: And the “Biodistribution, radioactivity in Blood” value (3 hr post-injection)?
A: 5.1 ± 1.2 percentage of radioactivity per gram

Q: And the “Biodistribution, radioactivity in Fat” value (3 hr post-injection)?
A: 2.4 ± 0.4 percentage of radioactivity per gram

Q: What about the “Biodistribution, radioactivity in Heart” value (3 hr post-injection) of the same compound?
A: 2.7 ± 0.7 percentage of radioactivity per gram

Q: What about the “Biodistribution, radioactivity in Kidney” value (3 hr post-injection) of the same compound?
A: 5.2 ± 0.7 percentage of radioactivity per gram

Q: What about the “Biodistribution, radioactivity in Liver” value (3 hr post-injection) of the same compound?
A: 7.7 ± 0.6 percentage of radioactivity per gram

Q: And the “Biodistribution, radioactivity in Lung” value (3 hr post-injection)?
A: 61.9 ± 10.3 percentage of radioactivity per gram

Q: And the “Biodistribution, radioactivity in Muscle” value (3 hr post-injection)?
A: 1.0 ± 0.2 percentage of radioactivity per gram

Q: And the “Biodistribution, radioactivity in Small intestine” value (3 hr post-injection)?
A: 11.6 ± 0.3 percentage of radioactivity per gram

Q: What about the “Biodistribution, radioactivity in Spleen” value (3 hr post-injection) of the same compound?
A: 2.9 ± 0.6 percentage of radioactivity per gram

Q: And the “Biodistribution … in Stomach” value (3 hr post-injection)?
A: 37.7 ± 12.3 percentage of radioactivity per gram

Q: And the “Biodistribution, radioactivity in Blood” value (24 hr post-injection)?
A: 0.6 ± 0.2 percentage of radioactivity per gram

Q: What about the “Biodistribution, radioactivity in Fat” value (24 hr post-injection) of the same compound?
A: 0.6 ± 0.2 percentage of radioactivity per gram

Q: What about the “Biodistribution, radioactivity in Heart” value (24 hr post-injection) of the same compound?
A: 1.5 ± 0.3 percentage of radioactivity per gram

Q: And the “Biodistribution, radioactivity in Kidney” value (24 hr post-injection)?
A: 1.9 ± 0.3 percentage of radioactivity per gram

Q: And the “Biodistribution, radioactivity in Liver” value (24 hr post-injection)?
A: 3.3 ± 1.1 percentage of radioactivity per gram

Q: What about the “Biodistribution, radioactivity in Lung” value (24 hr post-injection) of the same compound?
A: 47.2 ± 9.2 percentage of radioactivity per gram

Q: And the “Biodistribution, radioactivity in Muscle” value (24 hr post-injection)?
A: 0.3 ± 0.0 percentage of radioactivity per gram

Q: And the “Biodistribution, radioactivity in Small intestine” value (24 hr post-injection)?
A: 9.2 ± 6.9 percentage of radioactivity per gram

Q: What about the “Biodistribution, radioactivity in Spleen” value (24 hr post-injection) of the same compound?
A: 3.3 ± 1.0 percentage of radioactivity per gram

Q: What about the “Biodistribution … in Stomach” value (24 hr post-injection) of the same compound?
A: 5.4 ± 1.6 percentage of radioactivity per gram
